The results in this text go back to patent publication US8431597B2, “Benzimidazole derivatives” (Pfizer Inc., priority 2007, dated 2013).

Counter-ions that a name gives are not always drawn.

T1 sequence (P56726 33-793): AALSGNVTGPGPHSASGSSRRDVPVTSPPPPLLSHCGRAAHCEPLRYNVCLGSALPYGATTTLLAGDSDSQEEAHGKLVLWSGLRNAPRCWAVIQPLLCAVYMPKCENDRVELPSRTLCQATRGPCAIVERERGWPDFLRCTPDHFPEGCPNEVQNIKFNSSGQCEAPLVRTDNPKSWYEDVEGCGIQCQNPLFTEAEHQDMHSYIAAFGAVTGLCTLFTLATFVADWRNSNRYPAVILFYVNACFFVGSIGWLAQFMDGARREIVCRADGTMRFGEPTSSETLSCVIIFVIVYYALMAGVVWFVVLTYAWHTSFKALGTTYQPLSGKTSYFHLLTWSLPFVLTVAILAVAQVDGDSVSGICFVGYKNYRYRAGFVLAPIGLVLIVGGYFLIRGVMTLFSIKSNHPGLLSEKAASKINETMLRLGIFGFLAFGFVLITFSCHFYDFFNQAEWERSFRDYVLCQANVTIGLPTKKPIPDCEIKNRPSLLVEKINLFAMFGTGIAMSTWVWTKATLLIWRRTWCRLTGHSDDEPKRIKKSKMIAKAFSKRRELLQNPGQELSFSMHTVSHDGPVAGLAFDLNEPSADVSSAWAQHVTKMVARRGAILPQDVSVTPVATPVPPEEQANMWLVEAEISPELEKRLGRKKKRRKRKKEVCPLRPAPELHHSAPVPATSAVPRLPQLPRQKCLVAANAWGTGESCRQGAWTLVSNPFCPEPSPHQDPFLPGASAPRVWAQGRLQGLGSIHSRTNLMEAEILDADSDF

One test addresses T1, Smoothened (SMO) (Mus musculus, UniProt P56726).
T1 construct: C3H10T1/2 cells (ATCC #CCL-226) were split and seeded; endogenous in cells; host or cells: C3H10T1/2 (ATCC #CCL-226)
Briefly: Smoothened (SMO)/Sonic Hedgehog (SHh) Transient Transcriptional Activation Assay (Gli-luciferase reporter in C3H10T1/2 cells). The test is classed as cell-based, murine. The settings on record: 2 μM compound; transfected C3H10T1/2 cells, recombinant human SHh 250 ng/mL, 20 hours, luciferase readout; 2 µM. How it is done:
As noted above, the compounds of the invention are useful as inhibitors of SMO. • Methods for determining the in vitro activity of these compounds are described below: Smoothened (SMO)/Sonic Hedgehog (SHh) Transient Transcriptional Activation Assay
On Day 1, 2×10^6 C3H10T1/2 cells (ATCC #CCL-226) were split and seeded in 12 mL of growth medium Basal Medium Eagle (BME, Invitrogen #21010-046) supplemented with 2 mM L-glutamine (Invitrogen #25030-081), 0.1 units/mL penicillin and 0.1 μg/mL streptomycin (Invitrogen #15140-122), and 10% Fetal Bovine Serum (FBS, Invitrogen #16140-071) in a T-75 flask (Costar #3376). They were allowed to attach for 4 hours at 37° C., 5% CO2. The cells were then transfected using Fugene 6 (Roch #11 814 443 001) in the following reaction: 48 μL Fugene 6 and 745 μL Opti-MEM (Invitrogen #31985-070) were mixed and allowed to sit at room temperature for 5 minutes. 8 μg of pGL4.14/mGli(CS) DNA (10× murine Gli response elements and minimal CS promoter) and 0.5 μg of pEGFP DNA (Clontech) were added, gently mixed and incubated at room temperature for 20 minutes. This entire transfection mix was then added to the T-75 flask containing the cells. The cells were incubated at 37° C., 5% CO2 for 18-24 hours.
On Day 2, the transfected cells were trypsinized and seeded into white 96 well plates (Costar #3917) in 100 μL/well of growth medium at a concentration of 20,000 cells/well. The cells were allowed to recover for 4 hours before adding serum starvation medium Dulbecco's Modified Eagle Medium (DMEM, Invitrogen #21063-029) supplemented with 2 mM L-glutamine, 0.1 units/mL penicillin and 0.1 μg/mL streptomycin, and 0.5% Calf Serum (CS, Invitrogen #26170-043). The growth media was aspirated off, and the cells were rinsed with 100 μL of starvation media. 95 μL of starvation media was then added to each well. The cells were incubated for 20 hours at 37° C., 5% CO2.
On Day 3, cells were dosed with test compounds at a final concentration ranging from 2 μM to 2 nM. Immediately after dosing cells with compounds, recombinant human sonic hedgehog (SHh, R&D Systems #1845-SH) was add to a final concentration of 250 ng/mL. A 25 μg vial of SHh was reconstituted with 250 μL PBS/0.1% BSA to give a 100 ng/μL working stock. This working stock was then diluted 1:20 in starvation media. The transfected cells were incubated with compounds and SHh for 20 hours at 37° C., 5% CO2.
Luciferase assays were conducted on Day 4 using Dual-Glo Luciferase assay system (Promega #E2940) according to Promega's protocol. Briefly, Dual-Glo luciferase reagent was made up and 100 μL were added to each well of the 96 well plate containing media. Plates were shaken at room temperature for 10 minutes, and then read on TopCount (Perkin-Elmer). The luminescence was recorded.
Take `O=C(N[C@@H]1CN[C@H](c2nc3ccccc3[nH]2)C1)c1ccc2c(c1)OCCO2` [Example 9, N-[(3S,5S)-5-(1H-benzimidazol-2-yl)pyrrolidin-3-yl]-2,3-dihydro-1,4-benzodioxine-6-carboxamide]: the “SMO CELL % INHIBITION @ 2 μM” value turned out to be 65.00%.

Still in this test, the particulars now being: C3H 10T1/2, 2 μM compound; transfected C3H10T1/2 cells, recombinant human SHh 250 ng/mL, 20 hours, luciferase readout; read-out: SMO CELL % INHIBITION @ 2 μM.
Usually inhibition stands for the change of the read-out against control, counted positive when it falls. For `COc1ccc2[nH]c([C@H]3C[C@H](NC(=O)c4ccc5c(c4F)OCCO5)CCN3C)nc2c1` [Example 143, 5-fluoro-N-[(2R,4R)-2-(5-methoxy-1H-benzimidazol-2-yl)-1-methylpiperidin-4-yl]-2,3-dihydro-1,4-benzodioxine-6-carboxamide triflouroacetate], the inhibition at 2 µM was determined as 83.5%.
Still for that read-out and setting: the value for `CN1CC[C@@H](NC(=O)Nc2ccc(C#N)cc2)C[C@@H]1c1nc2cc(Cl)ccc2[nH]1` [Example 64, 1-[(2R,4R)-2-(5-chloro-1H-benzimidazol-2-yl)-1-methylpiperidin-4-yl]-3-(4-cyanophenyl)urea hydrochloride] was 103%.
On the same count and under the same terms, the value for `CN1CC[C@@H](NC(=O)c2ccc3c(c2)NC(=O)CO3)C[C@@H]1c1nc2ccccc2[nH]1` [Example 100, N-[(2R,4R)-2-(1H-benzimidazol-2-yl)-1-methylpiperidin-4-yl]-3-oxo-3,4-dihydro-2H-1,4-benzoxazine-6-carboxamide hydrochloride] was 63.7%; that for `CN1CC[C@@H](NC(=O)Nc2ccc(OC(F)(F)F)cc2)C[C@@H]1c1nc2ccccc2[nH]1` [Example 15, 1-[(2R,4R)-2-(1H-benzimidazol-2-yl)-1-methylpiperidin-4-yl]-3-[4-(trifluoromethoxy)phenyl]urea hydrochloride] was 111%; that for `CN1CC[C@@H](NC(=S)c2ccc3c(c2)OCCO3)C[C@@H]1c1nc2ccccc2[nH]1` [Example 140, N-[(2R,4R)-2-(1H-benzimidazol-2-yl)-1-methylpiperidin-4-yl]-2,3-dihydro-1,4-benzodioxine-6-carbothioamide hydrochloride] was 107%.
As to `Cc1ccc(NC(=O)N[C@@H]2CCN(C)[C@@H](c3nc4cc(C#N)ccc4[nH]3)C2)cn1` [Example 127, 1-[(2R,4R)-2-(5-cyano-1H-benzimidazol-2-yl)-1-methylpiperidin-4-yl]-3-(6-methylpyridin-3-yl)urea hydrochloride], the inhibition at 2 µM came out at 103%.
On the same count and under the same terms, the value for `Cc1cc(NC(=O)N[C@@H]2CCN(C)[C@@H](c3nc4ccccc4[nH]3)C2)cnc1C` [Example 71, 1-[(2R,4R)-2-(1H-benzimidazol-2-yl)-1-methylpiperidin-4-yl]-3-(5,6-dimethylpyridin-3-yl)urea hydrochloride] was 101%; that for `COc1ccc2[nH]c([C@H]3C[C@H](NC(=O)Nc4ccc(C#N)cc4)CCN3C)nc2c1` [Example 29, 1-(4-cyanophenyl)-3-[(2R,4R)-2-(5-methoxy-1H-benzimidazol-2-yl)-1-methylpiperidin-4-yl]urea hydrochloride] was 108%; that for `CN1CC[C@@H](NC(=O)Nc2ccc(C(F)(F)F)cc2)C[C@@H]1c1nc2ccccc2[nH]1` [Example 18, 1-[(2R,4R)-2-(1H-benzimidazol-2-yl)-1-methylpiperidin-4-yl]-3-[4-(trifluoromethyl)phenyl]urea hydrochloride] was 110%.
Same read-out and setting: the value for `N#Cc1ccc(NC(=O)N[C@@H]2CCN(CCc3ccccc3)[C@@H](c3nc4ccccc4[nH]3)C2)cc1` [Example 98, 1-[(2R,4R)-2-(1H-benzimidazol-2-yl)-1-(2-phenyl-ethyl)piperidin-4-yl)-3-(4-cyanophenyl)urea] was 74.5%; that for `CN1CC[C@@H](NC(=O)c2ccc3c(c2)OCCO3)C[C@@H]1c1nc2cc(F)c(F)cc2[nH]1` [Example 57, N-[(2R,4R)-2-(5,6-difluoro-1H-benzimidazol-2-yl)-1-methylpiperidin-4-yl]-2,3-dihydro-1,4-benzodioxine-6-carboxamide hydrochloride] was 104%; that for `COc1ccc(NC(=O)N[C@@H]2CCN(C)[C@@H](c3nc4ccccc4[nH]3)C2)cc1` [Example 37, 1-[(2R,4R)-2-(1H-benzimidazol-2-yl)-1-methylpiperidin-4-yl]-3-(4-methoxyphenyl)urea hydrochloride] was 106%.
The same measure, in the same setting: the value for `CN1CC[C@@H](NC(=O)Nc2ccncc2)C[C@@H]1c1nc2ccccc2[nH]1` [Example 16, 1-[(2R,4R)-2-(1H-benzimidazol-2-yl)-1-methylpiperidin-4-yl)-3-pyridin-4-ylurea hydrochloride] was 111%; that for `CN1CC[C@@H](NC(=O)Cc2cc3ccccc3o2)C[C@@H]1c1nc2ccccc2[nH]1` [Example 104, N-[(2R,4R)-2-(1H-benzimidazol-2-yl)-1-methylpiperidin-4-yl]-2-(1-benzofuran-2-yl)acetamide trifluoroacetate] was 99.5%.
As to `CN1CC[C@@H](NC(=O)Cc2ccc3c(c2)CCO3)C[C@@H]1c1nc2ccccc2[nH]1` [Example 116, N-[(2R,4R)-2-(1H-benzimidazol-2-yl)-1-methylpiperidin-4-yl]-2-(2,3-dihydro-1-benzofuran-5-yl)acetamide trifluoroacetate], the inhibition at 2 µM worked out at 68.2%.
On the same count and under the same terms, the figure for `COc1ccc2nc([C@@H]3C[C@H](NC(=O)Nc4ccc(Cl)c(C(F)(F)F)c4)CN3C)[nH]c2c1` [Example 25, 1-[4-chloro-3-(trifluoromethyl)phenyl]-3-[(3S,5S)-5-(6-methoxy-1H-benzimidazol-2-yl)-1-methylpyrrolidin-3-yl]urea] is 105%.
The same measure, in the same setting: the value for `N#Cc1ccc(NC(=O)N[C@@H]2CCN(C3CCC3)[C@@H](c3nc4ccccc4[nH]3)C2)cc1` [Example 70, 1-[(2R,4R)-2-(1H-benzimidazol-2-yl)-1-cyclobutyl-piperidin-4-yl]-3-(4-cyanophenyl)urea] was 101%; that for `COc1ccc2[nH]c([C@H]3C[C@H](NC(=O)Nc4ccc(OC)nc4)CCN3C)nc2c1` [Example 136, 1-[(2R,4R)-2-(5-methoxy-1H-benzimidazol-2-yl)-1-methylpiperidin-4-y)]-3-(6-methoxypyridin-3-yl)urea hydrochloride] was 106%; that for `CN1CC[C@@H](NC(=O)Nc2ccc(C#N)nc2)C[C@@H]1c1nc2ccccc2[nH]1` [Example 54, 1-[(2R,4R)-2-(1H-benzimidazol-2-yl)-1-methylpiperidin-4-yl]-3-(6-cyanopyridin-3-yl)urea hydrochloride] was 105%.
On the same count and under the same terms, the figure for `Cc1ccc(NC(=O)N[C@@H]2CCN(C)[C@@H](c3nc4ccc(F)cc4[nH]3)C2)cn1` [Example 132, 1-[(2R,4R)-2-(6-fluoro-1H-benzimidazol-2-yl)-1-methylpiperidin-4-yl]-3-(6-methylpyridin-3-yl)urea hydrochloride] is 108%; for `CN1CC[C@@H](NC(=O)Nc2ccc(C#N)cc2)C[C@@H]1c1nc2ccccc2[nH]1` [Example 31, 1-[(2R,4R)-2-(1H-benzimidazol-2-yl)-1-methylpiperidin-4-yl]-3-(4-cyanophenyl)urea hydrochloride] it is 107%; for `CN1CC[C@@H](NC(=O)Nc2ccc(C(F)(F)F)nc2)C[C@@H]1c1nc2ccccc2[nH]1` [Example 66, 1-[(2R,4R)-2-(1H-benzimidazol-2-yl)-1-methylpiperidin-4-y1]-3-[6-(trifluoromethyl)pyridin-3-yl]urea hydrochloride] it is 103%.
Take `CN1CC[C@@H](NC(=O)Cn2cc3ccccc3n2)C[C@@H]1c1nc2ccccc2[nH]1` [Example 108, N-[(2R,4R)-2-(1H-benzimidazol-2-yl)-1-methylpiperidin-4-yl]-2-(2H-indazol-2-yl)acetamide trifluoroacetate]: the inhibition at 2 µM came to 86.4%.
